From patent US20240246954A1, “COMPOSITIONS AND METHODS FOR INHIBITING KRAS” (TheRas, Inc., priority 2021, published 2024)

What was measured:
[1] = molecular target: T1, Avi-KRAS G12D (1-169) GppNHp/RAF1 RBD-3×FLAG (52-151) (Homo sapiens, UniProt P01116, G12D); assay: HTRF Raf1-KRAS G12D-GppNHp disruption assay; type: biochemical; settings: 1 h incubation
T1 construct: Avi-KRAS G12D (1-169) GppNHp
How it was run: (§1)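 Compounds titrated from 100 μM in a 10-point series, incubated with protein mix 1 h at room temperature, then HTRF reagents a further 1 h. Time-resolved fluorescence read (excitation 320 nm, emission 615 nm); activity expressed as percentage of DMSO control.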

[2] = molecular target: T2, Avi-KRAS G12D/Q25A (1-169) GppNHp/3×FLAG-PI3KCA (157-299) (Homo sapiens, UniProt P01116, G12D/Q25A); assay: HTRF PI3KCA-KRAS G12D/Q25A-GppNHp disruption assay; type: biochemical; settings: 1 h incubation
T2 construct: Avi-KRAS G12D/Q25A (1-169) GppNHp
T2 sequence (P01116 1-169 isoform P01116-2 G12D/Q25A limits assumed): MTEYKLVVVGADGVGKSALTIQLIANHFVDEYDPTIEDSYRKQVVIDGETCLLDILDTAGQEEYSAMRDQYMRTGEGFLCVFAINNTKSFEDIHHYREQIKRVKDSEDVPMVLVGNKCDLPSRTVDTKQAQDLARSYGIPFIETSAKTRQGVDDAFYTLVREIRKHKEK
How it was run: as §1

[3] = system: pERK in GP2d cells (KRAS G12D); assay: Cell-based pERK HTRF assay; settings: GP2d, 1 h, 60 min incubation
Description: Biological Example 3. Cell-Based pERK HTRF Assay
pERK assay (Perkin Elmer) was used to determine the effectiveness of compounds in disrupting KRAS G12D protein/effector signaling in cells.
On Day 1, cells (GP2d) were seeded into 96-well plates at 3×10^4 cells/well in 80 μl complete growth media (DMEM, 10% FBS).
On Day 2, cells were treated with compounds at 0.25% DMSO. The source plate was created with compounds diluted in media at 5-fold the final assay concentration. The compounds were run in a 9-point concentration curve starting at 1 μM, with a half-log dilution between concentrations. 20 μL was transferred onto the cell plates (final volume in wells was 100 μL). Plates were harvested after 60 min incubation by aspirating media and adding kit-supplied 1× supplemented lysis buffer to all wells (50 μl per well). Plates were then placed on a plate shaker and incubated at 850 rpm for an additional 30 min.
Antibody mixture solution is prepared by diluting aliquoted d2 and Eu Cryptate antibodies 1:20 in kit supplied detection buffer, mix the diluted antibodies solutions (1:1 v:v). Four μL of this solution is then added to a 384-well detection plate (Perkin Elmer; 6008230).
Samples were homogenized by pipetting up and down and then transferred (16 μL of cell lysates) from the 96-well cell culture plate to two wells of the HTRF 384-well detection plate containing the antibody solution. Plates were centrifuged (524 g for 1 min) and allowed to incubate between 4 and 24 h at room temperature. Maximum signal is reached after 4 h incubation time and remains stable over a period of 24 hours. Therefore, readings can be made between 4 and 24 h of incubation. Plates were centrifuged again (524 g for 1 min), then analyzed on the EnVision plate reader using the following settings: Excitation 320 nm, Bandwidth 75 nm; Emission 615 nm, Bandwidth 85 nm; Gain 100%; Flashes 100; Lag 60 μs.

T1 sequence (P01116 1-169 isoform P01116-2 G12D limits assumed): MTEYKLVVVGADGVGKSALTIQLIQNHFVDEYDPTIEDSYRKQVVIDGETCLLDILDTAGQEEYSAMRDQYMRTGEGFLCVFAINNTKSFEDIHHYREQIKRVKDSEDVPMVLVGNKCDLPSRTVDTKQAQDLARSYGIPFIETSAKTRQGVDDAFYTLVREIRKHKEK

Compound | IC50 [1] | IC50 [2] | IC50 [3]
N#CCc1cc2c(NC3CNC3)nc(OCC34CCCN3CCC4)nc2c(F)c1-c1ccc(F)c2sc(N)nc12 [Compound 126] | 1000 to 10000 nM | 1000 to 10000 nM | > 1000 nM
N#Cc1c(N)sc2c(F)ccc(-c3cc4nc(OC[C@@]56CCCN5C[C@H](F)C6)nc(N5CC6CCC(C5)N6)c4cc3C(F)(F)F)c12 [Compound 323, 4-(4-(3,8-diazabicyclo[3.2.1]octan-3-yl)-2-(((2R,7aS)-2-fluorotetrahydro-1H-pyrrolizin-7a(5H)-yl)methoxy)-6-(trifluoromethyl)quinazolin-7-yl)-2-amino-7-fluorobenzo[b]thiophene-3-carbonitrile] | ≤ 100 nM | 100 to 1000 nM | ≤ 100 nM
Nc1nc2c(-c3c(C(F)(F)F)cc4c(N5C[C@H]6CC[C@@H](C5)N6)nc(OC[C@@]56CCCN5C[C@H](F)C6)nc4c3O)ccc(F)c2s1 [Compound 343, 7-(2-amino-7-fluorobenzo[d]thiazol-4-yl)-4-((1R,5S)-3,8-diazabicyclo[3.2.1]octan-3-yl)-2-(((2R,7aS)-2-fluorotetrahydro-1H-pyrrolizin-7a(5H)-yl)methoxy)-6-(trifluoromethyl)quinazolin-8-ol] | 10000 to 30000 nM | 10000 to 30000 nM | > 1000 nM
Nc1nc2c(-c3c(C(F)(F)F)cc4c(N5CC6CCC5CN6)nc(OC[C@@]56CCCN5C[C@H](F)C6)nc4c3F)ccc(F)c2s1 (some centres unmarked) [Compound 223] | 100 to 1000 nM | 100 to 1000 nM | ≤ 100 nM
CN(c1nc(OCC23CCCN2CCC3)nc2c(F)c(-c3ccc(F)c4sc(N)nc34)c(C(F)(F)F)cc12)[C@@H]1CCNC1 (single isomer, unassigned) [Compound 236] | 100 to 1000 nM | 100 to 1000 nM | > 1000 nM
Nc1nc2c(-c3c(Cl)cc4c(N5CC6CC(C5)N6)nc(OCC56CCCN5CCC6)nc4c3F)ccc(F)c2s1 [Compound 184, 4-(4-(3,6-diazabicyclo[3.1.1]heptan-3-yl)-6-chloro-8-fluoro-2-((tetrahydro-1H-pyrrolizin-7a(5H)-yl)methoxy)quinazolin-7-yl)-7-fluorobenzo[d]thiazol-2-amine] | 100 to 1000 nM | 1000 to 10000 nM | > 1000 nM
Nc1nc2c(-c3c(C(F)(F)F)cc4c(N5C[C@H]6CC[C@@H](C5)N6)nc(OCC5(CN6CCOCC6)CC5)nc4c3F)ccc(F)c2s1 [Compound 251, 4-(4-((1R,5S)-3,8-diazabicyclo[3.2.1]octan-3-yl)-8-fluoro-2-((1-(morpholinomethyl)cyclopropyl)methoxy)-6-(trifluoromethyl)quinazolin-7-yl)-7-fluorobenzo[d]thiazol-2-amine] | 100 to 1000 nM | 1000 to 10000 nM | ≤ 100 nM
CN1CCC(Oc2nc(N3CC4CCC(C3)N4)c3cc(C(F)(F)F)c(-c4ccc(F)c5sc(N)nc45)c(F)c3n2)CC1 [Compound 340] | 1000 to 10000 nM | 1000 to 10000 nM | 100 to 1000 nM
Nc1nc2c(-c3c(C(F)(F)F)cc4c(N5CC6CC(C5)N6)nc(OCC56CCCN5CCC6)nc4c3F)ccc(F)c2s1 [Compound 185] | 100 to 1000 nM | 100 to 1000 nM | 100 to 1000 nM
N#Cc1cc2c(N3C[C@H]4CC[C@@H](C3)N4)nc(OC[C@@]34CCCN3C[C@H](F)C4)nc2c(F)c1-c1ccc(F)c2sc(N)c(C#N)c12 [Compound 359, 7-(2-amino-3-cyano-7-fluorobenzo[b]thiophen-4-yl)-4-((1R,5S)-3,8-diazabicyclo[3.2.1]octan-3-yl)-8-fluoro-2-(((2R,7aS)-2-fluorotetrahydro-1H-pyrrolizin-7a(5H)-yl)methoxy)quinazoline-6-carbonitrile] | 100 to 1000 nM | 100 to 1000 nM | ≤ 100 nM
N#Cc1cc2c(N3CC4CCC(C3)N4)nc(OC[C@@]34CCCN3C[C@H](F)C4)nc2c(F)c1-c1ccc(F)c2sc(N)nc12 [Compound 258] | 100 to 1000 nM | 100 to 1000 nM | ≤ 100 nM
CN1CCC[C@H]1COc1nc(NC2CNC2)c2cc(-c3ccoc3)c(-c3ccc(F)c4sc(N)nc34)c(F)c2n1 [Compound 133] | 100 to 1000 nM | 1000 to 10000 nM | > 1000 nM
CN(c1nc(OCC23CCCN2CCC3)nc2c(F)c(-c3ccc(F)c4sc(N)nc34)c(C(F)(F)F)cc12)C12CC(N)(C1)C2 [Compound 274] | 100 to 1000 nM | 100 to 1000 nM | 100 to 1000 nM
NC(=O)N1CC(Nc2nc(OCC34CCCN3CCC4)nc3c(F)c(-c4ccc(F)c5sc(N)nc45)c(C(F)(F)F)cc23)C1 [Compound 188] | 100 to 1000 nM | 1000 to 10000 nM | > 1000 nM
Nc1nc2c(-c3c(C(F)(F)F)cc4c(NC5CNC5)nc(OC[C@@]56CCCN5C[C@H](F)C6)nc4c3F)ccc(F)c2s1 [Compound 247] | 100 to 1000 nM | 100 to 1000 nM | > 1000 nM
N#Cc1c(N)sc2c(F)ccc(-c3c(C(F)(F)F)cc4c(N5CC6CCC(C5)N6)nc(OCC5(CN6CC[C@@H](F)C6)CC5)nc4c3F)c12 [Compound 330] | ≤ 100 nM | 100 to 1000 nM | ≤ 100 nM
NCC(=O)N1CC(Nc2nc(OCC34CCCN3CCC4)nc3c(F)c(-c4ccc(F)c5sc(N)nc45)c(C(F)(F)F)cc23)C1 [Compound 187] | 100 to 1000 nM | 1000 to 10000 nM | > 1000 nM
CN1C[C@H](F)C[C@H]1COc1nc(N2C[C@H]3NCC[C@H]32)c2cc(C(F)(F)F)c(-c3ccc(F)c4sc(N)nc34)c(F)c2n1 [Compound 174] | 1000 to 10000 nM | – | > 1000 nM
Fc1c(-c2cc(C(F)F)cc3ccccc23)c(C(F)(F)F)cc2c(N3CC4CCC(C3)N4)nc(OCC34CCCN3CCC4)nc12 [Compound 331] | 10000 to 30000 nM | 10000 to 30000 nM | > 1000 nM
CO[C@H]1CN2CCC[C@]2(COc2nc(N3CC4CCC(C3)N4)c3cc(C(F)(F)F)c(-c4ccc(F)c5sc(N)nc45)c(F)c3n2)C1 [Compound 285] | 100 to 1000 nM | 100 to 1000 nM | ≤ 100 nM

Results, then the molecule that gave them:

IC50 [1] | IC50 [2] | IC50 [3] | Compound
100 to 1000 nM | 1000 to 10000 nM | 100 to 1000 nM | Nc1nc2c(-c3c(C(F)(F)F)cc4c(N5CCC[C@H]6NCC[C@H]65)nc(OCC56CCCN5CCC6)nc4c3F)ccc(F)c2s1 [Compound 332]
1000 to 10000 nM | 1000 to 10000 nM | > 1000 nM | Nc1nc2c(-c3c(C(F)(F)F)cc4c(N[C@H]5C[C@H]6CNC[C@H]6C5)nc(OCC56CCCN5CCC6)nc4c3F)ccc(F)c2s1 [Compound 326]
100 to 1000 nM | 100 to 1000 nM | 100 to 1000 nM | CN(c1nc(OC[C@@]23CCCN2C[C@H](F)C3)nc2c(F)c(-c3ccc(F)c4sc(N)c(C#N)c34)c(F)cc12)[C@@H]1CCNC1 [Compound 377]
100 to 1000 nM | 100 to 1000 nM | > 1000 nM | Nc1nc2c(-c3c(C(F)(F)F)cc4c(N[C@H]5CCC6(CNC6)C5)nc(OCC56CCCN5CCC6)nc4c3F)ccc(F)c2s1 [Compound 335]
100 to 1000 nM | 1000 to 10000 nM | > 1000 nM | Nc1nc2c(-c3c(C(F)(F)F)cc4c(N5CCC6(CCNC6)C5)nc(OCC56CCCN5CCC6)nc4c3F)ccc(F)c2s1 (centres unmarked) [Compound 327]
1000 to 10000 nM | 10000 to 30000 nM | 100 to 1000 nM | CN(c1nc(OC[C@@]23CCCN2C[C@H](F)C3)nc2c(F)c(-c3ccc(F)c4sc(N)nc34)c(C(F)(F)F)cc12)[C@H]1CNCC12CC2 [Compound 312]
100 to 1000 nM | 1000 to 10000 nM | ≤ 100 nM | CN(c1nc(OC[C@@]23CCCN2C[C@H](F)C3)nc2c(F)c(-c3ccc(F)c4sc(N)c(C#N)c34)c(C(F)(F)F)cc12)[C@H]1CNC[C@@H]1F [Compound 355]
100 to 1000 nM | 100 to 1000 nM | 100 to 1000 nM | CN(c1nc(OC[C@@]23CCCN2C[C@H](F)C3)nc2cc(-c3ccc(F)c4sc(N)nc34)c(C(F)(F)F)cc12)[C@H]1CNC[C@H]1F [Compound 354]
100 to 1000 nM | 100 to 1000 nM | ≤ 100 nM | N#Cc1c(N)sc2c(F)ccc(-c3c(C(F)(F)F)cc4c(N5CC[C@@H]6CNCC[C@@H]65)nc(OC[C@@]56CCCN5C[C@H](F)C6)nc4c3F)c12 [Compound 376]
100 to 1000 nM | 1000 to 10000 nM | ≤ 100 nM | CN(c1nc(OCC2(CN3CCOCC3)CC2)nc2c(F)c(-c3ccc(F)c4sc(N)nc34)c(C(F)(F)F)cc12)[C@@H]1CCNC1 [Compound 296]
100 to 1000 nM | 100 to 1000 nM | 100 to 1000 nM | CN(c1nc(OC[C@@]23CCCN2C[C@H](F)C3)nc2c(F)c(-c3ccc(F)c4sc(N)c(C#N)c34)ccc12)[C@@H]1CCNC1 [Compound 344]
